{
  "source": "patent US20120225862A1",
  "about": "“HETEROARYL BENZAMIDES, COMPOSITIONS AND METHODS OF USE” (AUCKLAND UNIVSERVICES LIMITED, priority 2009, published 2012)",
  "key": {"[1]": {"test_system": "RCC4/VHL cell clones overexpressing HIF-2α", "test": "Sensitivity of RCC4/VHL clones overexpressing HIF", "type": "cell-based, human", "details": "two HIF-overexpressing RCC4/VHL clones, FIG. 2G", "description": "As the hypoxia-inducible factor family of transcription factors are the best-characterized VHL targets, we next examined whether toxicity was HIF-dependent. A non-degradable, constitutively active HIF was overexpressed in RCC4/VHL cells. Two individual HIF-overexpressing clones were tested for their sensitivity to compound 47. […] Furthermore, the sensitivity of RCCs that lack functional VHL to compound 47 is directly linked to the aberrant upregulation of HIF."}, "[2]": {"test_system": "LC3", "test": "Autophagy markers (vacuoles, LC3 processing)", "type": "cell-based, human", "details": "RCC4 and RCC4/VHL, 1.25, 2.5 and 5 μM", "description": "(A) Clonogenic survival of RCC4 and RCC4/VHL treated with […] (5 μM)(*p<0.05). All error bars represent the standard error of the mean. […] RCC4 and RCC4/VHL cells were treated with increasing concentrations of compound 47 (1.25, 2.5 and 5 μM), a negative control (DMSO) and a positive control (4-(pyridin-4-yl)-N-(m-tolyl)thiazol-2-amine). Cells were lysed and probed for LC3, a marker of autophagy, or α-tubulin (loading control). […] RCC4 and RCC4/VHL cells were treated with vehicle, increasing concentrations of compound 47, and camptothecin. Cells were stained with DAPI and nuclear condensation was examined by fluorescence microscopy. (D) RCC4 cells were treated with compound 47 (5 μM) for the indicated time and stained with Annexin V and propidium iodide and subjected to FACS analysis. […] RCC4 and RCC4/VHL cells were subjected to increasing concentrations of compound 47 (1.25, 2.5, and 5 μM), a negative control (DMSO), and a positive control (doxorubicin). Cells were lysed and subjected to Western blot with the indicated antibodies.\nHowever, RCC cells without VHL undergo a necrotic cell death in response to compound 47 as measured by the ability of the cells to exclude trypan blue, an indicator of cell membrane integrity."}, "[3]": {"test_system": "RCC4", "test": "3H-2-deoxyglucose uptake, RCC4", "type": "cell-based, human", "description": "One hundred thousand cells were plated into 6-well plates. The following day, the cells were treated with vehicle or drug and incubated for the indicated time. Cells were washed twice in phosphate buffered saline and low glucose media was added for 30 minutes. Cells were then incubated with 0.5 microCi of tritiated-2-deoxyglucose and incubated for an hour at 37° C. Cells were washed twice in PBS and then lysed in 0.2 N NaOH and 0.2% SDS. Lysates were transferred to scintillation tubes with scintillation fluid and quantified by scintillation counter.\nOne hundred thousand cells were plated per well in a six-well plate. The next day, cells were treated with the indicated concentration of drug and incubated for the indicated time. Cells were then washed twice with phosphate-buffered saline, incubated in low-glucose medium for 30 minutes, and ^3H-2-deoxyglucose (0.5 μCi) was added in 1 ml of glucose-free media for an additional hour. Cells were washed twice in PBS and lysed (0.2 N NaOH and 0.2% sodium dodecyl sulfate). Glucose uptake was quantified with a scintillation counter."}, "[4]": {"test_system": "hexokinase", "test": "Hexokinase activity in whole cell lysates, RCC4", "type": "cell-based, human", "details": "5 μM", "description": "(§1) All cells were grown in DMEM+10% FCS. ACHN and ACHN shVHL were a kind gift from George V. Thomas (UCLA). HIF overexpressing clones were described previously. Transfection of RNA oligos were performed with DnarmaFECT Reagent 1 (Dharmcon), according to manufacturer's directions. ON-TARGETplus SMART pools against HIF-1β/ARNT were purchased from Dharmacon. Glut1 was detected with anti-GLUT1 antibody from NeoMarkers/LabVision/Fisher. Pyruvate/lactate levels and hexokinase activity were both measured by fluorometric assay (BioVision and Sigma-Aldrich, respectively). ATP levels were measured by bioluminescence assay (ATP Determination Kit from Molecular Probes/Invitrogen). In vitro kinase activities were performed by Millipore KinaseProfiler. Affi-Gel 10 (BioRad) activated affinity media was coupled to analogs to generate immobilized affinity linkers.\nWe then examined whether this decrease in glycolysis in response to compound 47 was due to a decrease in glucose uptake or whether compound 47 inhibited a particular glycolytic enzyme. To test this, we measured glucose uptake using 2-deoxy-D-[^3H] glucose, a non-hydrolyzable, radioactive glucose analog, following two days of treatment with compound 47. […] RCC4/VHL cells had lower baseline levels of glucose uptake compared to RCC4 cells and were unaffected by treatment with compound 47. […]"}, "[5]": {"test_system": "50 different kinases", "test": "In vitro kinase panel (Millipore KinaseProfiler), summary", "type": "biochemical", "description": "as §1\n(§2) We next wanted to investigate the differential glucose uptake between RCCs with and without VHL treated with compound 47 that subsequently lead to the selective death of VHL-deficient cells. We first examined the message levels of the two main glucose transporters, GLUT1 and GLUT2 by quantitative real-time PCR. GLUT1 is an inducible, high-affinity glucose transporter, while GLUT2 is the glucose transporter responsible for basal glucose uptake. […] Cells deficient in VHL had very low levels of GLUT2 that could barely be detected (FIG. 3J). […]"}, "[6]": {"target": "T1, Flt3 (Homo sapiens, UniProt P36888)", "T1 construct": "purchased Millipore (KinaseProfiler service)", "T1 sequence (P36888 27-993, species assumed)": "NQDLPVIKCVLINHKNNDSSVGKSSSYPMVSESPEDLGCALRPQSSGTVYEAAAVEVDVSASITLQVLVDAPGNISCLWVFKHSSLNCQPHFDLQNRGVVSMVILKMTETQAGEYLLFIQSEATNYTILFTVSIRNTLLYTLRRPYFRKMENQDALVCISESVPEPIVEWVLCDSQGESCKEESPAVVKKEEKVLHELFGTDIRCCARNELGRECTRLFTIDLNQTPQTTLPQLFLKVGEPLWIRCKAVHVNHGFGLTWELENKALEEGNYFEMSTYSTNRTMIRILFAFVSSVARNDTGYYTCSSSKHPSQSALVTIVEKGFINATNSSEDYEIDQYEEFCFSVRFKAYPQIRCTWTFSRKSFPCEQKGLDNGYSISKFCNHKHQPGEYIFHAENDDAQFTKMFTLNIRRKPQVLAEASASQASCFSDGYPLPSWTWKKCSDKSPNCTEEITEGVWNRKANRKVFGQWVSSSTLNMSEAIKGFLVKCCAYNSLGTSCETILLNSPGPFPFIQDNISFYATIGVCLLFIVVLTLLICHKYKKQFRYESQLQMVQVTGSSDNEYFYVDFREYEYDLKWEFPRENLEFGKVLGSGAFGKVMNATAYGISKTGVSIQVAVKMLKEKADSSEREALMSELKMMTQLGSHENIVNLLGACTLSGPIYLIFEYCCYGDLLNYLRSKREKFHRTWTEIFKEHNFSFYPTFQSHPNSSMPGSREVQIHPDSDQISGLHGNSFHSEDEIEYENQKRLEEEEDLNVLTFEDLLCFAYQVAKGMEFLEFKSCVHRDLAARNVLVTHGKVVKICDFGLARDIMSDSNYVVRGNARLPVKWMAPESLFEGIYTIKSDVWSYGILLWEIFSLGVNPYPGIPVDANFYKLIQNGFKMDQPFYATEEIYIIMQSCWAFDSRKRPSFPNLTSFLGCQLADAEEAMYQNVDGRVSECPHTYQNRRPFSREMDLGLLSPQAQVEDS", "test": "In vitro kinase activity (Millipore KinaseProfiler): Flt3", "type": "biochemical", "details": "no head or unit printed", "description": "as §1, §2"}, "[7]": {"target": "T2, Pim-2 (Homo sapiens, UniProt Q9P1W9)", "T2 construct": "purchased Millipore (KinaseProfiler service)", "T2 sequence (Q9P1W9 whole entry, species assumed)": "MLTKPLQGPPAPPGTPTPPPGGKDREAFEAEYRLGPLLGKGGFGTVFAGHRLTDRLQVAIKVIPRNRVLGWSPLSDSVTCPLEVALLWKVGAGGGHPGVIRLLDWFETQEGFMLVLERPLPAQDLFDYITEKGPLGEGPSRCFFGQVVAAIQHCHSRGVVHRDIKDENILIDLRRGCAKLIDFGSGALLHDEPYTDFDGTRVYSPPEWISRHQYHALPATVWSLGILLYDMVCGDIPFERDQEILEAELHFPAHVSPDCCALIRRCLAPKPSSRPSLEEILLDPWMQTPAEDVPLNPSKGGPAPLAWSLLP", "test": "In vitro kinase activity (Millipore KinaseProfiler): Pim-2", "type": "biochemical", "details": "no head or unit printed", "description": "as §1, §2"}, "[8]": {"target": "T3, ROCK-I (Homo sapiens, UniProt Q13464)", "T3 construct": "purchased Millipore (KinaseProfiler service)", "T3 sequence (Q13464 whole entry, species assumed)": "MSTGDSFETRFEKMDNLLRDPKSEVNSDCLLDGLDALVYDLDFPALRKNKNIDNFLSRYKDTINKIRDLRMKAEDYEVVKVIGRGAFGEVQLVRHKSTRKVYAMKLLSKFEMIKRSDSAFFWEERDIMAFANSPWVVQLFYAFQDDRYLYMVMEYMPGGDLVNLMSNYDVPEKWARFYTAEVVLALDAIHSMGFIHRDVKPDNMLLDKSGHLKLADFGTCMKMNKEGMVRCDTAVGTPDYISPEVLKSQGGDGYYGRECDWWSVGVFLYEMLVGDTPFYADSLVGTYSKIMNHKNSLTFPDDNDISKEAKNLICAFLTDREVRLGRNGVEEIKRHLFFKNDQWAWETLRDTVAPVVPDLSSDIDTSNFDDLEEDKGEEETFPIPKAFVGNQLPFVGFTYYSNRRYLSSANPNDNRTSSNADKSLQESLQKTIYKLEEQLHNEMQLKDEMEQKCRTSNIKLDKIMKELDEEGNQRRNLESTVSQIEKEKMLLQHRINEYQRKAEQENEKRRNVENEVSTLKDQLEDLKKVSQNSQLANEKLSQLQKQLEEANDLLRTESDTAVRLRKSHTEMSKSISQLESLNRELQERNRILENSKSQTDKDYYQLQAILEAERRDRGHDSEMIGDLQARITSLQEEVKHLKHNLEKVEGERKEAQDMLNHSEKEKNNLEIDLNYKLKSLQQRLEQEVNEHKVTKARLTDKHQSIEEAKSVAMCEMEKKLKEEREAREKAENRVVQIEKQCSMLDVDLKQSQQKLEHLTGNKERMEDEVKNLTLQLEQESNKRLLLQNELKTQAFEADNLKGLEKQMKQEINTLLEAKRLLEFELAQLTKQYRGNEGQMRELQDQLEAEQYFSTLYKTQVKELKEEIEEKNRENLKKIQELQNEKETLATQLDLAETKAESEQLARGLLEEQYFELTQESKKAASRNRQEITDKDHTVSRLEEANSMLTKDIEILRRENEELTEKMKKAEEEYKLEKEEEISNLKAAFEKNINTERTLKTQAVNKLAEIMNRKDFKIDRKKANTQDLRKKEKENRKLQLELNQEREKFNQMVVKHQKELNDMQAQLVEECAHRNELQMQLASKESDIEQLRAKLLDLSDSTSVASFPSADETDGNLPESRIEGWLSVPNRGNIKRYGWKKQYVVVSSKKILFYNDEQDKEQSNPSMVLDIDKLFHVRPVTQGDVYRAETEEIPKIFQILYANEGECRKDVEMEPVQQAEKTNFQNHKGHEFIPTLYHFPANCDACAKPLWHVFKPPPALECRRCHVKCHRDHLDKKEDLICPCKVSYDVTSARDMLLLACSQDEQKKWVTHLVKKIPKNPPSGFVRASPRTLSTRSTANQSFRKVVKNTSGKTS", "test": "In vitro kinase activity (Millipore KinaseProfiler): ROCK-I", "type": "biochemical", "details": "no head or unit printed", "description": "as §1, §2"}, "[9]": {"target": "T4, Rsk1 (Homo sapiens, UniProt Q15418)", "T4 construct": "purchased Millipore (KinaseProfiler service)", "T4 sequence (Q15418 whole entry, species assumed)": "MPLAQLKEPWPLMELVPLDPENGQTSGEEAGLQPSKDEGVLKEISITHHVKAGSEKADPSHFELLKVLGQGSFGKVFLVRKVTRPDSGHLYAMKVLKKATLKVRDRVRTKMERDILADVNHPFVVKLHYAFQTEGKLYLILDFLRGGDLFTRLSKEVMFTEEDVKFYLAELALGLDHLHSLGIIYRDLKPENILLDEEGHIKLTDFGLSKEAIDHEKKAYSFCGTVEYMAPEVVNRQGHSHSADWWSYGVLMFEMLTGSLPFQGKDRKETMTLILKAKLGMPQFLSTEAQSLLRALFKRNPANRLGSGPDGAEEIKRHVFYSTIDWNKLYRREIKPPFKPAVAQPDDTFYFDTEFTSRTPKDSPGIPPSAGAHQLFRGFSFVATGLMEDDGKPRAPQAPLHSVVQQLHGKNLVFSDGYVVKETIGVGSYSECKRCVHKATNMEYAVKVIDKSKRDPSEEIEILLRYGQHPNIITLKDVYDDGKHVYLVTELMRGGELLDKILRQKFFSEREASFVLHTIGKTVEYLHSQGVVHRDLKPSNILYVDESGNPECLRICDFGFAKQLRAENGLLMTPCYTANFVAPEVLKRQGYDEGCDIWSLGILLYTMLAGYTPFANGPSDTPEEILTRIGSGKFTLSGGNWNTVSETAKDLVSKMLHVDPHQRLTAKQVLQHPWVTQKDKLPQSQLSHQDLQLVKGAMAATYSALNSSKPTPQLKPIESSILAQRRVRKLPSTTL", "test": "In vitro kinase activity (Millipore KinaseProfiler): Rsk1", "type": "biochemical", "details": "no head or unit printed", "description": "as §1, §2"}},
  "data": [
    {"compound": "CC(C)(C)c1ccc(S(=O)(=O)NCc2ccc(C(=O)Nc3cccnc3)cc2)cc1", "note": "[Example 38, 4-((4-tert-Butylphenylsulfonamido)methyl)-N-(pyridin-3-yl)benzamide]", "values": [
      {"measurement": "effect of ectopic HIF expression in wild-type VHL cells on sensitivity", "setting": "[1]", "result": "sensitized these cells"},
      {"measurement": "induction of autophagy (vacuoles, LC3 processing)", "setting": "[2]", "result": "did not induce any morphologic or biochemical features of autophagy"},
      {"measurement": "glucose uptake in VHL-deficient RCC4 cells", "setting": "[3]; 3H-2-deoxyglucose, two days of treatment, 5 μM", "result": "impaired glucose uptake"},
      {"measurement": "concentration dependence of glucose uptake inhibition in RCC4", "setting": "[3]; increasing concentrations, FIG. 3C", "result": "dose-dependent manner"},
      {"measurement": "hexokinase activity in RCC4", "setting": "[4]", "result": "inhibited by compound 47 only after three days of treatment"},
      {"measurement": "decrease in activity of 50 different kinases", "setting": "[5]", "result": "no significant decrease"},
      {"measurement": "Flt3 kinase activity", "setting": "[6]", "result": 111, "unit": "%"},
      {"measurement": "Pim-2 kinase activity", "setting": "[7]", "result": 112},
      {"measurement": "ROCK-I kinase activity", "setting": "[8]", "result": 74, "unit": "%"},
      {"measurement": "Rsk1 kinase activity", "setting": "[9]", "result": 120, "unit": "%"}
    ]}
  ]
}
